Measurements as given in US9212182B2, “Bicyclic sulfonamide compounds as sodium channel inhibitors” (AMGEN INC., priority 2013, dated 2015).
pIC50: −log10 of the molar value.

Target: Nav 1.7 (Homo sapiens (Human), UniProt Q15858)
Assay: in-vitro Nav 1.7 PX (IC50)
Type: cell-based
Conditions: not given

Nav 1.7, sequence (Q15858 whole entry): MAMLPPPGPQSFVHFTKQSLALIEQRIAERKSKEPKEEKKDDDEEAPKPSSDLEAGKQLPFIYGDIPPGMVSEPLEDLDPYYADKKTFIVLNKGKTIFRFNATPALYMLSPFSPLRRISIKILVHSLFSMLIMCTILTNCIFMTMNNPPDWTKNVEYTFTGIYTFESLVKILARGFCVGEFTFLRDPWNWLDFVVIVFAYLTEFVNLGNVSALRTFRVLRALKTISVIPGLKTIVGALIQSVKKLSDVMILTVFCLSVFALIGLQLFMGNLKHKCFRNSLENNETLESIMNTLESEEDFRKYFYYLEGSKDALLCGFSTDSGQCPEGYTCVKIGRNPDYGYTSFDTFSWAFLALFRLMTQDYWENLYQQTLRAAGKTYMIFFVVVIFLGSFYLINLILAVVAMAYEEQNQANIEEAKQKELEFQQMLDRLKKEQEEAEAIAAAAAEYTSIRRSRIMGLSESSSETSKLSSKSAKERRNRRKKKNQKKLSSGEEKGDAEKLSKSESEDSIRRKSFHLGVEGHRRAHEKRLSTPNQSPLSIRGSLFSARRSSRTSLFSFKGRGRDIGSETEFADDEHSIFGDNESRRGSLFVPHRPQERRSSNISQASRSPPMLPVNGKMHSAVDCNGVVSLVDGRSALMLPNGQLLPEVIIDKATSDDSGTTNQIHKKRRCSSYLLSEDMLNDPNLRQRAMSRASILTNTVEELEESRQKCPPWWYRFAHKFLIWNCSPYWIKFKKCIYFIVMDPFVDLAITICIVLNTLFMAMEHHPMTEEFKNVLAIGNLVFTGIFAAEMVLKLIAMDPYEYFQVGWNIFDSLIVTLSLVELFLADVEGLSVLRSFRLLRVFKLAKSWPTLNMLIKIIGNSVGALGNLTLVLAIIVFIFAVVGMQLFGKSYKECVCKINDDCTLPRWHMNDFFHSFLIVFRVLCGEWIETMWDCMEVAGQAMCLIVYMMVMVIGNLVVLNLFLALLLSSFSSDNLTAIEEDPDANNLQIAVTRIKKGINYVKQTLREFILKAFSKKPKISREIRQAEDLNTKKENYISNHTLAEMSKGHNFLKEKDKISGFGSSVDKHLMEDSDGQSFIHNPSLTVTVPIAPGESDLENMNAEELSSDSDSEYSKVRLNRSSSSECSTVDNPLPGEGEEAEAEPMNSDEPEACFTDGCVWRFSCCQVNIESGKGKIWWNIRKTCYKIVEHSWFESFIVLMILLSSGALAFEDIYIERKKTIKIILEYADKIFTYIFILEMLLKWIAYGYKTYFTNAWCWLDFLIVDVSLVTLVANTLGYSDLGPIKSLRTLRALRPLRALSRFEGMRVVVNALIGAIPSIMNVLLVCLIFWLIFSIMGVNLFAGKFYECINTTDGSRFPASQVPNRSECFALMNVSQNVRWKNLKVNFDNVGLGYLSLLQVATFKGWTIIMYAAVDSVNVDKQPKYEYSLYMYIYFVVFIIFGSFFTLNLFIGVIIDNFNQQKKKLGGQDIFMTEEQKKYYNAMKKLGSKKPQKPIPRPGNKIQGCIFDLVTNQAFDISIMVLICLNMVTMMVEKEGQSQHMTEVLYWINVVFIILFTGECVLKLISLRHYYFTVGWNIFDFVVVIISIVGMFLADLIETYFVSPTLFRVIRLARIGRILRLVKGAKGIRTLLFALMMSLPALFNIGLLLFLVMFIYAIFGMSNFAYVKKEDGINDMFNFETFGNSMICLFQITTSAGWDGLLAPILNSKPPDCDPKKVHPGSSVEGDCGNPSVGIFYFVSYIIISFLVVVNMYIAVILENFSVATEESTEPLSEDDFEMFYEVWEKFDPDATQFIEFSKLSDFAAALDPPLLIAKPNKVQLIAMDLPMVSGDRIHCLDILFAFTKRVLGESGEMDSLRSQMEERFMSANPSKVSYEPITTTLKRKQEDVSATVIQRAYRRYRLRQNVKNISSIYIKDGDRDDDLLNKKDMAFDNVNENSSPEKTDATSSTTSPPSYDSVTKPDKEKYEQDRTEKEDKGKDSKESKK

Structure (SMILES)	pIC50
COc1cc(-c2cccc(Cl)c2)c(C)cc1-n1c(=O)ccc2cc(S(=O)(=O)Nc3ncccn3)ccc21 (atropisomer, axis not shown; (M)) [Example 322, (M)-1-(3′-chloro-5-methoxy-2-methyl-4-biphenylyl)-2-oxo-N-2-pyrimidinyl-1,2-dihydro-6-quinolinesulfonamide]	5.41
COc1cc(-c2ccc(F)cc2)c(F)cc1-n1c(=O)cnc2cc(S(=O)(=O)Nc3ccon3)ccc21 [Example 1141, 1-(2,4′-difluoro-5-methoxy-4-biphenylyl)-N-3-isoxazolyl-2-oxo-1,2-dihydro-6-quinoxalinesulfonamide]	6.97
COc1nc(OCC(F)(F)C2CCOCC2)c(Cl)cc1-n1c(=O)ccc2cc(S(=O)(=O)Nc3ccon3)ccc21 [Example 1211, 1-(5-chloro-6-(2,2-difluoro-2-(tetrahydro-2H-pyran-4-yl)ethoxy)-2-methoxy-3-pyridinyl)-N-3-isoxazolyl-2-oxo-1,2-dihydro-6-quinolinesulfonamide]	6.10
COc1nc(N(C)C2CCCC2)c(Cl)cc1-n1c(=O)ccc2cc(S(=O)(=O)Nc3ccon3)ccc21 [Example 1231, 1-(5-chloro-6-(cyclopentyl(methyl)amino)-2-methoxy-3-pyridinyl)-N-3-isoxazolyl-2-oxo-1,2-dihydro-6-quinolinesulfonamide]	6.94
COc1cc(-c2cc(F)cc(F)c2)c(C)cc1-n1c(=O)cc(C)c2cc(S(=O)(=O)Nc3ccon3)ccc21 (atropisomer, axis not shown; (P)) [Example 570, (P)-1-(3′,5′-difluoro-5-methoxy-2-methyl-4-biphenylyl)-N-3-isoxazolyl-4-methyl-2-oxo-1,2-dihydro-6-quinolinesulfonamide]	7.17
COc1cc(-c2cccc(C)c2)ccc1-n1c(=O)ccc2cc(S(=O)(=O)Nc3ccon3)ccc21 (atropisomer, axis not shown; (P)) [Example 584, (P)-N-3-isoxazolyl-1-(3-methoxy-3′-methyl-4-biphenylyl)-2-oxo-1,2-dihydro-6-quinolinesulfonamide]	7.89
COc1cc(-c2cccc(F)c2)c(Cl)cc1-n1c(=O)ccc2cc(S(=O)(=O)Nc3ccon3)c(F)cc21 (atropisomer, axis not shown; (P)) [Example 545, (P)-1-(2-chloro-3′-fluoro-5-methoxy-4-biphenylyl)-7-fluoro-N-3-isoxazolyl-2-oxo-1,2-dihydro-6-quinolinesulfonamide]	8.00
COc1nc(-c2ccc(F)cc2)c(Cl)cc1-n1c(=O)ccc2cc(S(=O)(=O)Nc3ccon3)ccc21 (atropisomer, axis not shown; (P)) [Example 1203, (P)-1-(5-chloro-6-(4-fluorophenyl)-2-methoxy-3-pyridinyl)-N-3-isoxazolyl-2-oxo-1,2-dihydro-6-quinolinesulfonamide]	6.73
COc1nc(C2CC2)c(Cl)cc1-n1c(=O)ccc2cc(S(=O)(=O)Nc3ccon3)ccc21 (atropisomer, axis not shown; (P)) [Example 1230, (P)-1-(5-chloro-6-cyclopropyl-2-methoxy-3-pyridinyl)-N-3-isoxazolyl-2-oxo-1,2-dihydro-6-quinolinesulfonamide]	6.33
COc1cc(C#CC2CCCC2)c(F)cc1-n1c(=O)cnc2cc(S(=O)(=O)Nc3ccon3)ccc21 [Example 1142, 1-(4-(cyclopentylethynyl)-5-fluoro-2-methoxyphenyl)-N-3-isoxazolyl-2-oxo-1,2-dihydro-6-quinoxalinesulfonamide]	7.10
COc1cc(-c2cccc(F)c2)c(Cl)cc1-n1c(=O)ccc2cc(S(=O)(=O)Nc3ncccn3)ccc21 (atropisomer, axis not shown; (P)) [Example 355, (P)-1-(2-chloro-3′-fluoro-5-methoxy-[1,1′-biphenyl]-4-yl)-2-oxo-N-(pyrimidin-2-yl)-1,2-dihydroquinoline-6-sulfonamide]	7.51

Same assay, conditions: in-vitro Nav 1.7 PX data

Structure (SMILES)	pIC50
COc1cc(-c2cccc(C(F)(F)F)c2)ccc1-n1c(=O)ccc2cc(S(=O)(=O)Nc3ncccn3)c(F)cc21 [Example 982, 7-fluoro-1-(3-methoxy-3′-(trifluoromethyl)-4-biphenylyl)-2-oxo-N-2-pyrimidinyl-1,2-dihydro-6-quinolinesulfonamide]	7.42
COc1ccc(-c2ccc(Cl)c(C)c2)cc1-n1c(=O)ccc2cc(S(=O)(=O)Nc3ccon3)ccc21 [Example 846, 1-(4′-chloro-4-methoxy-3′-methyl-3-biphenylyl)-N-3-isoxazolyl-2-oxo-1,2-dihydro-6-quinolinesulfonamide]	7.60
COc1cc(Cl)cc(-c2cc(OC)c(-n3c(=O)ccc4cc(S(=O)(=O)Nc5cccnn5)ccc43)cc2F)c1 [Example 930, 1-(3′-chloro-2-fluoro-5,5′-dimethoxy-4-biphenylyl)-2-oxo-N-3-pyridazinyl-1,2-dihydro-6-quinolinesulfonamide]	7.85
COc1cc(-c2ccc(F)c(C)c2)c(F)cc1-n1c(=O)ccc2cc(S(=O)(=O)Nc3ccnc(C)n3)ccc21 [Example 944, 1-(2,4′-difluoro-5-methoxy-3′-methyl-4-biphenylyl)-N-(2-methyl-4-pyrimidinyl)-2-oxo-1,2-dihydro-6-quinolinesulfonamide]	7.57
COc1cc(-c2ccc(-n3c(=O)ccc4cc(S(=O)(=O)Nc5ccon5)ccc43)c(OC)c2)ccc1C (atropisomer, axis not shown; (P)) [Example 686, (P)-1-(3,3′-dimethoxy-4′-methyl-4-biphenylyl)-N-3-isoxazolyl-2-oxo-1,2-dihydro-6-quinolinesulfonamide]	7.82
COc1cc(Cl)c(-c2cc(F)cc(Cl)c2)cc1-n1c(=O)ccc2cc(S(=O)(=O)Nc3ccon3)ccc21 (atropisomer, axis not shown; (M)) [Example 615, (M)-1-(3′,6-dichloro-5′-fluoro-4-methoxy-3-biphenylyl)-N-3-isoxazolyl-2-oxo-1,2-dihydro-6-quinolinesulfonamide]	4.97
COc1cc(-c2ccc(Cl)cn2)c(F)cc1-n1c(=O)ccc2cc(S(=O)(=O)Nc3ccon3)ccc21 [Example 800, 1-(4-(5-chloro-2-pyridinyl)-5-fluoro-2-methoxyphenyl)-N-3-isoxazolyl-2-oxo-1,2-dihydro-6-quinolinesulfonamide]	6.60
COc1cncc(-c2cc(OC)c(-n3c(=O)ccc4cc(S(=O)(=O)Nc5ccon5)ccc43)cc2F)c1 [Example 738, 1-(5-fluoro-2-methoxy-4-(5-methoxy-3-pyridinyl)phenyl)-N-3-isoxazolyl-2-oxo-1,2-dihydro-6-quinolinesulfonamide]	5.91
COc1cc(-c2cccc3c2OCC3)ccc1-n1c(=O)ccc2cc(S(=O)(=O)Nc3ccon3)ccc21 [Example 789, 1-(4-(2,3-dihydro-1-benzofuran-7-yl)-2-methoxyphenyl)-N-3-isoxazolyl-2-oxo-1,2-dihydro-6-quinolinesulfonamide]	7.05
COc1cc([C@H]2CC[C@@H](C)CC2)c(F)cc1-n1c(=O)ccc2cc(S(=O)(=O)Nc3ccon3)ccc21 [Example 1083, 1-(5-fluoro-2-methoxy-4-(cis-4-methylcyclohexyl)phenyl)-N-3-isoxazolyl-2-oxo-1,2-dihydro-6-quinolinesulfonamide, 1-(5-fluoro-2-methoxy-4-(trans-4-methylcyclohexyl)phenyl)-N-3-isoxazolyl-2-oxo-1,2-dihydro-6-quinolinesulfonamide]	8.00
COc1ccc(-c2ccc(F)cc2)cc1-n1c(=O)ccc2cc(S(=O)(=O)Nc3ccon3)ccc21 [Example 844, 1-(4′-fluoro-4-methoxy-3-biphenylyl)-N-3-isoxazolyl-2-oxo-1,2-dihydro-6-quinolinesulfonamide]	6.67
COc1cc(-c2ccc(C)c(F)c2)c(F)cc1-n1c(=O)ccc2cc(S(=O)(=O)Nc3ccnc(C)n3)ccc21 [Example 1124, 1-(2,3′-difluoro-5-methoxy-4′-methyl-4-biphenylyl)-N-(2-methyl-4-pyrimidinyl)-2-oxo-1,2-dihydro-6-quinolinesulfonamide]	6.97
COc1nc(-c2cc(F)cc(F)c2)c(Cl)cc1-n1c(=O)ccc2cc(S(=O)(=O)Nc3ccon3)ccc21 (atropisomer, axis not shown; (M)) [Example 666, (M)-1-(5-chloro-6-(3,5-difluorophenyl)-2-methoxy-3-pyridinyl)-N-3-isoxazolyl-2-oxo-1,2-dihydro-6-quinolinesulfonamide]	5.98

Same assay, conditions: in-vitro Nav 1.7 PX data (PatchXpress)

Structure (SMILES)	pIC50
COc1cc(-c2cc(C)ccc2F)ccc1-n1c(=O)ccc2cc(S(=O)(=O)Nc3ccon3)ccc21 [Example 1032, 1-(2′-fluoro-3-methoxy-5′-methyl-4-biphenylyl)-N-3-isoxazolyl-2-oxo-1,2-dihydro-6-quinolinesulfonamide]	7.31
COc1ccc(Cl)c(-c2ccc(-n3c(=O)ccc4cc(S(=O)(=O)Nc5ccon5)ccc43)c(OC)c2)c1 [Example 1031, 1-(2′-chloro-3,5′-dimethoxy-4-biphenylyl)-N-3-isoxazolyl-2-oxo-1,2-dihydro-6-quinolinesulfonamide]	7.60

Same assay, conditions: in-vitro PatchXpress (PX)

Structure (SMILES)	pIC50
COc1cc(-c2cc(C)cc(Cl)c2)c(F)cc1-n1c(=O)ccc2cc(S(=O)(=O)Nc3ccon3)ccc21 (atropisomer, axis not shown; (M)) [Example 507, (M)-1-(3′-chloro-2-fluoro-5-methoxy-5′-methyl-4-biphenylyl)-N-3-isoxazolyl-2-oxo-1,2-dihydro-6-quinolinesulfonamide]	6.00
COc1cc(-c2ccc(C)nc2)c(F)cc1-n1c(=O)ccc2cc(S(=O)(=O)Nc3ccon3)ccc21 [Example 500, 1-(5-fluoro-2-methoxy-4-(6-methyl-3-pyridinyl)phenyl)-N-3-isoxazolyl-2-oxo-1,2-dihydro-6-quinolinesulfonamide]	5.55
COc1cc(-c2ccc(Cl)c(C#N)c2)c(F)cc1-n1c(=O)ccc2cc(S(=O)(=O)Nc3ccon3)ccc21 (atropisomer, axis not shown; (M)) [Example 509, (M)-1-(4′-chloro-3′-cyano-2-fluoro-5-methoxy-4-biphenylyl)-N-3-isoxazolyl-2-oxo-1,2-dihydro-6-quinolinesulfonamide]	5.78
